Source: US20220401390A1, “TREATMENTS OF DIABETIC MACULAR EDEMA AND IMPAIRED VISUAL ACUITY” (KALVISTA PHARMACEUTICALS LIMITED, priority 2019, published 2022)
Entries after “also recorded” stand apart in the source; their conditions may differ.

Tested on: subjects with center involved diabetic macular edema
Test: Study 1: pharmacodynamic effect (visual acuity, retinal thickness)
Format: in vivo, human
Details: for Mean improvement in visual acuity compared with baseline: single injection
Procedure: The secondary objectives were: • To evaluate the plasma profile of the compound of Formula A following intravitreal injection in adult male and female subjects with central involved diabetic macular edema. • To evaluate the pharmacodynamic effect of intravitreal injection of the compound of Formula A in adult male and female subjects with central involved diabetic macular edema.
Following the signing of informed consent, subjects attended the clinic where screening assessments were recorded (Clinic Visit 1). When deemed eligible, subjects attended the clinic where baseline measurements were recorded (recorded as Day 0, Clinic Visit 2). Following confirmation of eligibility and the taking of baseline ophthalmic measurements, a single intravitreal injection of the compound of Formula A, was administered to the study eye as per Diabetic Retinopathy Clinical Research Network (DRCR.net) protocol.
Each subject returned on Day 1, 7, 14, 28 and 56 for safety and ophthalmic assessment. Pharmacokinetic assessment was also taken. In addition, the subject was contacted by the Study Site on Day 3 (+1-1 day) by telephone to inquire about the subject's visual wellbeing and to ask about any adverse events.
Single 100 μL intravitreal injection of: • 1 μg-10 μg/mL of the compound of Formula A • 3 μg-30 μg/mL of the compound of Formula A • […] of the compound of Formula A
• Best Corrected Visual Acuity as measured by ETDRS EVA • Intraocular pressure • Color vision • Multifocal Electroretinogram (mfERG) • Humphrey Visual Field 24-2 (HVF 24-2) • Treatment-Emergent Adverse Events (TEAEs) • Changes on ophthalmic examination • Clinical laboratory test results • Vital signs • ECG findings

[1] = whole study population, no control group

Q: How did the “Mean improvement in visual acuity compared with baseline” value (Day 7, average across all dose groups) turn out when `CCOc1ccc(C[C@@H](NC(=O)c2ccccc2)C(=O)N[C@@H](Cc2ccccc2)C(=O)NCc2ccc(CN)cc2)cc1` [compound of Formula A, N—[(R)-1-[(S)-1-(4-Aminomethyl-benzylcarbamoyl)-2-phenyl-ethylcarbamoyl]-2-(4-ethoxy-phenyl)-ethyl]-benzamide] was run?
A: The value was 0.7 letters.

Q: What about the “Mean improvement in visual acuity compared with baseline” value (Day 14, average across all dose groups) of the same molecule?
A: Its value is 1.0 letters.

Q: What about the “Mean improvement in visual acuity compared with baseline” value (Day 28, average across all dose groups) of the same molecule?
A: Its value is 1.9 letters.

Q: And the “Mean improvement in visual acuity compared with baseline” value (Day 56, average across all dose groups)?
A: Its value is 2.8 letters.

Q: And the “Mean improvement in visual acuity” value (Day 84, 1 μg dose)?
A: Its value is 3.3 letters.

Q: And the “Mean improvement in visual acuity” value (Day 84, 3 μg dose)?
A: The value was 2.0 letters.

Q: What about the “Mean improvement in visual acuity compared with baseline” value (Day 84, average across all dose groups) of the same molecule?
A: Its value is 4.1 letters.

Q: And the “Mean retinal thickness post-injection (in words)” value [1]?
A: Its value is “trends of improvement; also recorded: reduction”.

Q: And the “Mean visual acuity post-injection (in words)” value [1]?
A: Its value is “trends of improvement; also recorded: small improvement”.
